# Test results as given in publication PMC3961306, “Comparison of the Cancer Gene Targeting and Biochemical Selectivities of All Targeted Kinase Inhibitors Approved for Clinical Use” (PLoS ONE, 2014).
# Tests used:
# Assay in all cases: Kinase profiling in a biochemical assay panel (mobility shift assays and ELISA), %-inhibition at 1 μM; selectivity entropy
# [1] = target: T1, panel of more than 300 wild-type and mutant kinases (313 kinase panel) (Homo sapiens, UniProt P00540)
# T1 sequence (P00540 1-346): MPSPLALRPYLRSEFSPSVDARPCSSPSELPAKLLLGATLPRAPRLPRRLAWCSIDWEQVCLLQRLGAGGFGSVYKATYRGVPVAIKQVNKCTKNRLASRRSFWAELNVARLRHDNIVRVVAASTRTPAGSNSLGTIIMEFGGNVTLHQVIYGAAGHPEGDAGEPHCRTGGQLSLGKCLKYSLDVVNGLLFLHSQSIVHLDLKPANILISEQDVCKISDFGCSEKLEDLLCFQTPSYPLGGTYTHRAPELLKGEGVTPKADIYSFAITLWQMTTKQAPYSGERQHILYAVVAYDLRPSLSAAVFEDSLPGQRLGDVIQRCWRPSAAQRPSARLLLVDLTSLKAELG
# [2] = target: T2, panel of more than 300 wild-type and mutant kinases (313 kinase panel) (Homo sapiens, UniProt P53778)
# T2 sequence (P53778 1-367): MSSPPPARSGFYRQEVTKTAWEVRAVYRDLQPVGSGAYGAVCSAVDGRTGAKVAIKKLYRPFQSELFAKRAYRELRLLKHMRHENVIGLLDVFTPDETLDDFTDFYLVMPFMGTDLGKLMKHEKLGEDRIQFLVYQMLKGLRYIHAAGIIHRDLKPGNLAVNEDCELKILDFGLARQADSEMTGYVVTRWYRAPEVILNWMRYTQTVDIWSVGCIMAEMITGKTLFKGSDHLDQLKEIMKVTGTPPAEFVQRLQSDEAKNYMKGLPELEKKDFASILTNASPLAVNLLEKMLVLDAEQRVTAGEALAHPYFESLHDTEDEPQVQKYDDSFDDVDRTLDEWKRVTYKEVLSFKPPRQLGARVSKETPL
# [3] = target: panel of more than 300 wild-type and mutant kinases (313 kinase panel) (Homo sapiens, UniProt Q9HCP0)
# [4] = target: T3, panel of more than 300 wild-type and mutant kinases (313 kinase panel) (Homo sapiens, UniProt O15530)
# T3 sequence (O15530 1-556): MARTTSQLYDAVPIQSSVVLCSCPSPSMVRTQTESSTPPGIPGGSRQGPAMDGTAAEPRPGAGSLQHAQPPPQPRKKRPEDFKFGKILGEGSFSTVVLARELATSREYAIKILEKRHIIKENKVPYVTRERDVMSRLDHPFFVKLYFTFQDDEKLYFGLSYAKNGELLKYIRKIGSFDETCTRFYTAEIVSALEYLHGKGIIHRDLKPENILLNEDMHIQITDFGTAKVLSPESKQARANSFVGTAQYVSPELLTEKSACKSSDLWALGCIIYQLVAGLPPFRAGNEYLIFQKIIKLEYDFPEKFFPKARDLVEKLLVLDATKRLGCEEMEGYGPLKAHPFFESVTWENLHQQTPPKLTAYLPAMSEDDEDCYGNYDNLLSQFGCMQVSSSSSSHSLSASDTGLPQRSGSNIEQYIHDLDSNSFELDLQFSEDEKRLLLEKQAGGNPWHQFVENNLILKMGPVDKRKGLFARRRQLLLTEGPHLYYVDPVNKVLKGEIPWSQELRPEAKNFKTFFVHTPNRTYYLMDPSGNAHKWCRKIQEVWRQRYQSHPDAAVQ
# [5] = target: panel of more than 300 wild-type and mutant kinases (313 kinase panel) (Homo sapiens, UniProt Q9HC98)
# [6] = target: panel of more than 300 wild-type and mutant kinases (313 kinase panel) (Homo sapiens, UniProt O94804)
# Chain of panel of more than 300 wild-type and mutant kinases (313 kinase panel) (Homo sapiens, UniProt O94804) (O94804 whole entry, change not shown): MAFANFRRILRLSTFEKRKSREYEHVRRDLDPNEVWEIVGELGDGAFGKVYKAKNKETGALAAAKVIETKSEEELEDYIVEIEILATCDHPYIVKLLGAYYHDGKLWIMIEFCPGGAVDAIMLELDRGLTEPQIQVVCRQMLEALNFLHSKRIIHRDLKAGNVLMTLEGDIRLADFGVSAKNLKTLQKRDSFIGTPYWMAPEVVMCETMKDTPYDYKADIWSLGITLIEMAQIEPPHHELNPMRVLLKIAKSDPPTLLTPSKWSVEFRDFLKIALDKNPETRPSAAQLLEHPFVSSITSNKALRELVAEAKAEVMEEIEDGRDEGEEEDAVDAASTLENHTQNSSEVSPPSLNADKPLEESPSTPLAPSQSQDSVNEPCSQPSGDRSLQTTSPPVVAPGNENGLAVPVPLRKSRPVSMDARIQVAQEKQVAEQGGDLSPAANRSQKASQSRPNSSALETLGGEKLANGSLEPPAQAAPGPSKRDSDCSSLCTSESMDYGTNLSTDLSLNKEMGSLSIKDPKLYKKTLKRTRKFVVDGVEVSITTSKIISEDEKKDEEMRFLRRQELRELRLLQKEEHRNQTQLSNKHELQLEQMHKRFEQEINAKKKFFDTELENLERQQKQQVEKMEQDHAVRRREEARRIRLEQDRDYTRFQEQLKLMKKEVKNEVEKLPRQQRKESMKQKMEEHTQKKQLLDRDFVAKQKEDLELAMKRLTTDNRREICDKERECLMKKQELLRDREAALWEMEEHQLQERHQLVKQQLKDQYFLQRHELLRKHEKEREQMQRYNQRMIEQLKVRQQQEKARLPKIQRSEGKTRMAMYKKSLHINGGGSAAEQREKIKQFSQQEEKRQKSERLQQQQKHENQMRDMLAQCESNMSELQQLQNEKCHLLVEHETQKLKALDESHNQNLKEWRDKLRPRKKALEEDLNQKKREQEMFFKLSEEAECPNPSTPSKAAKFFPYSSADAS
# [7] = target: panel of more than 300 wild-type and mutant kinases (313 kinase panel) (Homo sapiens, UniProt O96013)
# [8] = target: T4, panel of more than 300 wild-type and mutant kinases (313 kinase panel) (Homo sapiens, UniProt P15735)
# T4 sequence (P15735 1-406): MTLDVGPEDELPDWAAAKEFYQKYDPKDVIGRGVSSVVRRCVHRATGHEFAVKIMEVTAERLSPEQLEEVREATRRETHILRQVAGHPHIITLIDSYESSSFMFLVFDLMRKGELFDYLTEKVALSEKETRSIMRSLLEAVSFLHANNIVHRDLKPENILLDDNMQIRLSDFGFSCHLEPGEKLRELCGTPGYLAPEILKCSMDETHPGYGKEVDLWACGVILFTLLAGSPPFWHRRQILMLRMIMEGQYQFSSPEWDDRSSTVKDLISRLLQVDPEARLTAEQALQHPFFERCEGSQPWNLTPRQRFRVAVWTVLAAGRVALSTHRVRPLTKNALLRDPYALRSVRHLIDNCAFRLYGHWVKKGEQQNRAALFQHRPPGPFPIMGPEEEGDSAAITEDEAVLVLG
# [9] = target: panel of more than 300 wild-type and mutant kinases (313 kinase panel) (Homo sapiens, UniProt P54764)
# Chain of panel of more than 300 wild-type and mutant kinases (313 kinase panel) (Homo sapiens, UniProt P54764) (P54764 20-986, change not shown): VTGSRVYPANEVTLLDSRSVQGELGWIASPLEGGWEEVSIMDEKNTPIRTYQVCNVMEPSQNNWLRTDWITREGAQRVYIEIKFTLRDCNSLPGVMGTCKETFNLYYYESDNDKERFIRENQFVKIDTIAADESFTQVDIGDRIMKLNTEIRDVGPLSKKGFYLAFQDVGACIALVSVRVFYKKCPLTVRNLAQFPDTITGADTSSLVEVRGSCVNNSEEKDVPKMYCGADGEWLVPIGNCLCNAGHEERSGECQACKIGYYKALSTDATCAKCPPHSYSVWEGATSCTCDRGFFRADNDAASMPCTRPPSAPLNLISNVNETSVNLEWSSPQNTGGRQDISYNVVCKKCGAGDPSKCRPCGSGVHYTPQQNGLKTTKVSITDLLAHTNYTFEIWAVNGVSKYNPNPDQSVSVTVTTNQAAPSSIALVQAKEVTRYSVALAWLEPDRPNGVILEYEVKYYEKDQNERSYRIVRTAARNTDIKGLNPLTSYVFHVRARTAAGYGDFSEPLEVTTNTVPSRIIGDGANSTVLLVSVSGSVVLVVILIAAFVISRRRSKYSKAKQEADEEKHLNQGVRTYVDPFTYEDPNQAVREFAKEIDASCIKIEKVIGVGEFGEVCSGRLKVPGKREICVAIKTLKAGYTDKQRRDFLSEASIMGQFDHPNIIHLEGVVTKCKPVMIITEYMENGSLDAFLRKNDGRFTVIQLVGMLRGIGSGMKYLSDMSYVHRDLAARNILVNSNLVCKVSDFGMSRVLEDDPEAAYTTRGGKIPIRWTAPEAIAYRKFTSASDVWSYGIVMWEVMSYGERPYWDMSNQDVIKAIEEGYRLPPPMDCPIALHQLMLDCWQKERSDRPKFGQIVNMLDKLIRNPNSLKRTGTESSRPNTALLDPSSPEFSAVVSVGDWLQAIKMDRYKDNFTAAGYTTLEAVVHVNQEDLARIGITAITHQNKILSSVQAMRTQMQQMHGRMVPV
smiles,measurement,setting,value
CN(C)C/C=C/C(=O)Nc1cc2c(Nc3ccc(F)c(Cl)c3)ncnc2cc1O[C@H]1CCOC1 [afatinib],%-inhibition of MOS,"[1]; kinase MOS, 1 μM",-2%
COc1cc(Nc2c(C#N)cnc3cc(OCCCN4CCN(C)CC4)c(OC)cc23)c(Cl)cc1Cl [bosutinib],%-inhibition of p38γ,"[2]; kinase p38γ, 1 μM",-6%
same,"%-inhibition, CK1γ1","[3]; kinase CK1γ1, 1 μM compound",14%
same,%-inhibition of PDK1,"[4]; kinase PDK1, 1 μM",-4.64%
same,%-inhibition of NEK6,[5]; 1 µM,-6%
same,%-inhibition of MOS,"[1]; kinase MOS, 1 μM",44%
COc1cc2nccc(Oc3ccc(NC(=O)C4(C(=O)Nc5ccc(F)cc5)CC4)cc3)c2cc1OC [cabozantinib],%-inhibition of LOK,"[6]; kinase LOK, compound at 1 μM",96%
same,%-inhibition of p38γ,"[2]; kinase p38γ, 1 μM",23%
same,%-inhibition of PAK4,"[7]; kinase PAK4, 1 μM",-13%
same,%-inhibition of PHKG2,"[8]; kinase PHKG2, 1 μM",-0.305%
same,"%-inhibition, CK1γ1","[3]; kinase CK1γ1, 1 μM compound",4.74%
same,%-inhibition of PDK1,"[4]; kinase PDK1, 1 μM",-7%
same,%-inhibition of NEK6,"[5]; kinase NEK6, 1 μM",-3.21%
same,%-inhibition of MOS,"[1]; kinase MOS, 1 μM",42%
same,%-inhibition of EPHA4,"[9]; kinase EPHA4, compound at 1 μM",97%
C[C@@H](Oc1cc(-c2cnn(C3CCNCC3)c2)cnc1N)c1c(Cl)ccc(F)c1Cl [crizotinib],%-inhibition of LOK,"[6]; kinase LOK, compound at 1 μM",98%
same,%-inhibition of PAK4,"[7]; kinase PAK4, 1 μM",-5.56%
same,%-inhibition of PHKG2,"[8]; kinase PHKG2, 1 μM",10%
same,"%-inhibition, CK1γ1","[3]; kinase CK1γ1, 1 μM compound",-3.52%
same,%-inhibition of PDK1,"[4]; kinase PDK1, 1 μM",-5%
same,%-inhibition of NEK6,"[5]; kinase NEK6, 1 μM",-2.72%
same,%-inhibition of MOS,"[1]; kinase MOS, 1 μM",1.25%
same,%-inhibition of EPHA4,"[9]; kinase EPHA4, compound at 1 μM",58%
CC(C)(C)c1nc(-c2cccc(NS(=O)(=O)c3c(F)cccc3F)c2F)c(-c2ccnc(N)n2)s1 [dabrafenib],%-inhibition of p38γ,"[2]; kinase p38γ, 1 μM",0.311%
same,%-inhibition of PAK4,"[7]; kinase PAK4, 1 μM",11%
same,%-inhibition of PHKG2,"[8]; kinase PHKG2, 1 μM",2%
same,%-inhibition of PDK1,"[4]; kinase PDK1, 1 μM",-5.38%
same,%-inhibition of NEK6,"[5]; kinase NEK6, 1 μM",-3%
same,%-inhibition of MOS,"[1]; kinase MOS, 1 μM",-12%
same,%-inhibition of EPHA4,"[9]; kinase EPHA4, compound at 1 μM",12%
C#Cc1cccc(Nc2ncnc3cc(OCCOC)c(OCCOC)cc23)c1 [erlotinib],%-inhibition of LOK,[6]; 1 µM,93%
same,%-inhibition of p38γ,[2]; 1 µM,4.5%
same,%-inhibition of PAK4,[7]; 1 µM,-4%
same,%-inhibition of PHKG2,[8]; 1 µM,4%
same,"%-inhibition, CK1γ1",[3]; 1 µM,2.22%
same,%-inhibition of PDK1,[4]; 1 µM,3%
same,%-inhibition of NEK6,[5]; 1 µM,2%
same,%-inhibition of MOS,[1]; 1 µM,3.64%
same,%-inhibition of EPHA4,[9]; 1 µM,32%
CO[C@H]1C[C@@H]2CC[C@@H](C)[C@@](O)(O2)C(=O)C(=O)N2CCCC[C@H]2C(=O)O[C@H]([C@H](C)C[C@@H]2CC[C@@H](OCCO)[C@H](OC)C2)CC(=O)[C@H](C)/C=C(\C)[C@@H](O)[C@@H](OC)C(=O)[C@H](C)C[C@H](C)/C=C/C=C/C=C/1C [everolimus],%-inhibition of LOK,"[6]; kinase LOK, compound at 1 μM",-9%
same,%-inhibition of p38γ,"[2]; kinase p38γ, 1 μM",-7%
same,%-inhibition of PAK4,"[7]; kinase PAK4, 1 μM",-4%
same,%-inhibition of PHKG2,"[8]; kinase PHKG2, 1 μM",-8%
same,"%-inhibition, CK1γ1","[3]; kinase CK1γ1, 1 μM compound",-2.44%
same,%-inhibition of PDK1,"[4]; kinase PDK1, 1 μM",-9%
same,%-inhibition of NEK6,"[5]; kinase NEK6, 1 μM",-6.38%
same,%-inhibition of MOS,"[1]; kinase MOS, 1 μM",3.3%
same,%-inhibition of EPHA4,"[9]; kinase EPHA4, compound at 1 μM",-2.61%
O=S(=O)(c1cccc2cnccc12)N1CCCNCC1 [fasudil],%-inhibition of LOK,"[6]; kinase LOK, compound at 1 μM",11%
same,%-inhibition of p38γ,"[2]; kinase p38γ, 1 μM",1.68%
same,%-inhibition of PHKG2,"[8]; kinase PHKG2, 1 μM",4%
same,"%-inhibition, CK1γ1","[3]; kinase CK1γ1, 1 μM compound",-3%
same,%-inhibition of PDK1,"[4]; kinase PDK1, 1 μM",-2.83%
same,%-inhibition of NEK6,"[5]; kinase NEK6, 1 μM",-2.46%
same,%-inhibition of MOS,"[1]; kinase MOS, 1 μM",-24%
same,%-inhibition of EPHA4,"[9]; kinase EPHA4, compound at 1 μM",-6%
CS(=O)(=O)CCNCc1ccc(-c2ccc3ncnc(Nc4ccc(OCc5cccc(F)c5)c(Cl)c4)c3c2)o1 [lapatinib],%-inhibition of LOK,"[6]; kinase LOK, compound at 1 μM",17%
same,%-inhibition of p38γ,"[2]; kinase p38γ, 1 μM",-1.19%
same,%-inhibition of PHKG2,[8]; 1 µM,0.269%
same,"%-inhibition, CK1γ1","[3]; kinase CK1γ1, 1 μM compound",-8.54%
same,%-inhibition of PDK1,[4]; 1 µM,-2.71%
same,%-inhibition of NEK6,"[5]; kinase NEK6, 1 μM",-4.3%
same,%-inhibition of MOS,"[1]; kinase MOS, 1 μM",4.31%
same,%-inhibition of EPHA4,"[9]; kinase EPHA4, compound at 1 μM",-0.823%
Cc1cn(-c2cc(NC(=O)c3ccc(C)c(Nc4nccc(-c5cccnc5)n4)c3)cc(C(F)(F)F)c2)cn1 [nilotinib],%-inhibition of LOK,[6]; 1 µM,-18%
same,%-inhibition of p38γ,"[2]; kinase p38γ, 1 μM",-15%
same,%-inhibition of PAK4,[7]; 1 µM,-21%
same,%-inhibition of PHKG2,"[8]; kinase PHKG2, 1 μM",-9%
same,"%-inhibition, CK1γ1",[3]; 1 µM,-1%
same,%-inhibition of PDK1,"[4]; kinase PDK1, 1 μM",-4.33%
same,%-inhibition of NEK6,"[5]; kinase NEK6, 1 μM",1%
same,%-inhibition of MOS,"[1]; kinase MOS, 1 μM",-3.64%
Cc1ccc(C(=O)Nc2ccc(CN3CCN(C)CC3)c(C(F)(F)F)c2)cc1C#Cc1cnc2cccnn12 [ponatinib],%-inhibition of p38γ,"[2]; kinase p38γ, 1 μM",86%
same,"%-inhibition, CK1γ1","[3]; kinase CK1γ1, 1 μM compound",-4%
same,%-inhibition of PDK1,"[4]; kinase PDK1, 1 μM",-5%
same,%-inhibition of NEK6,"[5]; kinase NEK6, 1 μM",-10%
same,%-inhibition of MOS,"[1]; kinase MOS, 1 μM",1.59%
CCN(CC)CCNC(=O)c1c(C)[nH]c(/C=C2\C(=O)Nc3ccc(F)cc32)c1C [sunitinib],%-inhibition of LOK,"[6]; kinase LOK, compound at 1 μM",92%
same,%-inhibition of PAK4,"[7]; kinase PAK4, 1 μM",6.58%
COc1cc2c(Nc3ccc(Br)cc3F)ncnc2cc1OCC1CCN(C)CC1 [vandetanib],%-inhibition of LOK,"[6]; kinase LOK, compound at 1 μM",92%
same,%-inhibition of p38γ,"[2]; kinase p38γ, 1 μM",-3.79%
same,%-inhibition of PAK4,"[7]; kinase PAK4, 1 μM",-11%
same,%-inhibition of PHKG2,"[8]; kinase PHKG2, 1 μM",19%
same,"%-inhibition, CK1γ1","[3]; kinase CK1γ1, 1 μM compound",-4.74%
same,%-inhibition of PDK1,"[4]; kinase PDK1, 1 μM",-4.37%
same,%-inhibition of NEK6,"[5]; kinase NEK6, 1 μM",-4.3%
same,%-inhibition of MOS,"[1]; kinase MOS, 1 μM",9%
